Data reported in paper PMC10854695, “Using Flavonoid Substitution Status to Predict Anticancer Effects in Human Melanoma Cancers: An In Vitro Study” (Cancers, 2024).

Tests used:
A375 melanoma cells [1] = experiment: Neutral red uptake (NRU) assay, A375; settings: Homo sapiens, read-out: IC50, cytotoxic activity, NRU assay
Method: (§1) The NRU (neutral red uptake) was conducted as previously described by Szoka and co-workers, with some modifications [22]. Briefly, melanoma cells and fibroblasts were seeded in microplates at the density of 1 × 10^4 cells per well and allowed to adhere for 24 h. […] After treatment, the culture medium was replaced with a neutral red solution (40 µg/mL). An additional 2 h of incubation was performed. The neutral red solution was then removed and the neutral red accumulated in the cells was dissolved in 50% EtOH with 1% of the glacial acetic acid. The absorbance was estimated at 540 nm and IC50 values were calculated using GraphPad Prism software (GraphPad Software, San Diego, CA, USA).

[2] = MTT cell viability assay, normal cells; settings: human;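 further: fibroblasts served as non-cancer comparison line for selectivity versus melanoma cells, MTT reduction read as absorbance at 570 nm after 2 h dye exposure, compounds in ≤0.1% DMSO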
Method: (§2) The MTT colorimetric assay was performed as a preliminary evaluation of the cytotoxicity of the selected flavonoids according to the method described and validated by Strawa et al. [21]. Briefly, melanoma cells and fibroblasts were seeded in 96-well microplates at a density of 1 × 10^4 cells per well. Fibroblasts were used as a control cell line in order to assess the selectivity of the compounds. […] Subsequently, the cells were washed with PBS, incubated with MTT solution for 2 h, and lysed with dimethyl sulfoxide (DMSO) supplemented with 1% (v/v) Sorensen’s glycine buffer. The absorbance was measured using a microplate reader (EPOCH 2, BioTek, Winooski, VT, USA) at a wavelength of 570 nm. The compounds were used at a final DMSO concentration of no more than 0.1% (v/v) in each well. The results were generated from at least three independent experiments. […] The IC50 values were calculated with GraphPad Prism 9 software (GraphPad Software, San Diego, CA, USA).

A375 melanoma cells [3] = experiment: MTT cell viability assay, A375; settings: Homo sapiens;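 further: Read-out is formazan absorbance at 570 nm after 2 h with MTT, with compounds in at most 0.1% v/v DMSO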
Method: as §2

C32 melanoma cells [4] = experiment: Neutral red uptake (NRU) assay, C32; settings: Homo sapiens
C32 melanoma cells [5] = experiment: MTT cell viability assay, C32; settings: Homo sapiens, read-out: IC50, cytotoxic activity, MTT test;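 further: MTT added for 2 h, cells lysed in DMSO, absorbance read at 570 nm, compound vehicle kept at or below 0.1% DMSO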
Method: as §2

[6] = Neutral red uptake (NRU) assay, normal cells; settings: human
Method: as §1

[7] = human skin fibroblasts (CCD25Sk)
[8] = A-375, 24 h, read-out: IC50, cytotoxic activity, MTT test, A375, 24 h
[9] = A-375, 48 h, read-out: IC50, cytotoxic activity, MTT test, A375, 48 h
[10] = A-375, 72 h, read-out: IC50, cytotoxic activity, MTT test, A375, 72 h
[11] = C32, 24 h, read-out: IC50, cytotoxic activity, NRU assay, C32, 24 h
[12] = C32, 48 h, read-out: IC50, cytotoxic activity, NRU assay, C32, 48 h
[13] = C32, 72 h, read-out: IC50, cytotoxic activity, NRU assay, C32, 72 h

Row | Structure (SMILES) | IC50 (A375 melanoma cells [1]; A-375, 24 h) [µM] | IC50 (A375 melanoma cells [1]; A-375, 48 h) [µM] | IC50 (A375 melanoma cells [1]; A-375, 72 h) [µM] | IC50 at 24 h [2, 7] [µM] | IC50 at 48 h [2, 7] [µM] | IC50 at 72 h [2, 7] [µM] | IC50 (A375 melanoma cells [3]; [8]) [µM] | IC50 (A375 melanoma cells [3]; [9]) [µM] | IC50 (A375 melanoma cells [3]; [10]) [µM] | IC50 (C32 melanoma cells [4]; [11]) [µM] | IC50 (C32 melanoma cells [4]; [12]) [µM] | IC50 (C32 melanoma cells [4]; [13]) [µM] | IC50 (C32 melanoma cells [5]; C32, 24 h) [µM] | IC50 (C32 melanoma cells [5]; C32, 48 h) [µM] | IC50 (C32 melanoma cells [5]; C32, 72 h) [µM] | IC50 at 24 h [6, 7] [µM] | IC50 at 48 h [6, 7] [µM] | IC50 at 72 h [6, 7] [µM] | also measured
1 | O=c1cc(-c2ccc(O)cc2)oc2c([C@@H]3O[C@H](CO)[C@@H](O)[C@H](O)[C@H]3O)c(O)cc(O)c12 [Compound 2, apigenin 8-C-glucoside] | > 200 | > 200 | > 200 | > 200 | > 200 | > 200 | > 200 | > 200 | > 200 | > 200 | > 200 | > 200 | > 200 | > 200 | > 200 | > 200 | > 200 | > 200 | –
2 | O=c1cc(-c2ccc(O)cc2)oc2cc(OC3OC(CO)C(O)C(O)C3O)cc(O)c12 (stereo not drawn) [Compound 3, apigenin 7-O-glucoside] | > 200 | > 200 | > 200 | > 200 | > 200 | > 200 | > 200 | > 200 | > 200 | > 200 | > 200 | > 200 | > 200 | > 200 | > 200 | > 200 | > 200 | > 200 | –
3 | O=C(O)C1OC(Oc2cc(O)c3c(=O)cc(-c4ccc(O)cc4)oc3c2)C(O)C(O)C1O (stereo not drawn) [Compound 4, apigenin 7-O-glucuronide] | > 200 | > 200 | > 200 | > 200 | > 200 | > 200 | > 200 | > 200 | > 200 | > 200 | > 200 | > 200 | > 200 | > 200 | > 200 | > 200 | > 200 | > 200 | –
4 | CC1OC(OCC2OC(Oc3cc(O)c4c(=O)cc(-c5ccc(O)cc5)oc4c3)C(O)C(O)C2O)C(O)C(O)C1O (stereo not drawn) [Compound 5, apigenin 7-O-rutinoside] | > 200 | > 200 | > 200 | > 200 | > 200 | > 200 | > 200 | > 200 | > 200 | > 200 | > 200 | > 200 | > 200 | > 200 | > 200 | > 200 | > 200 | > 200 | –
5 | O=c1c(O)c(-c2ccc(O)cc2)oc2cc(O)cc(O)c12 [Compound 18, kaempferol] | 100 to 200 | 57.4 ± 4.6 | 47.7 ± 3.9 | 100 to 200 | 100 to 200 | 55.8 ± 4.5 | 100 to 200 | 100 to 200 | 75.8 ± 5.8 | > 200 | 62.8 ± 3.5 | 34.4 ± 2.9 | 100 to 200 | 100 to 200 | 58.4 ± 3.5 | > 200 | 69.8 ± 5.8 | 51.1 ± 3.2 | –
6 | COc1c(O)cc(O)c2c(=O)c(O)c(-c3ccc(O)cc3)oc12 [Compound 19, 8-methoxykaempferol] | 100 to 200 | 100 to 200 | 100 to 200 | > 200 | > 200 | 100 to 200 | 100 to 200 | 100 to 200 | 61.8 ± 3.1 | 100 to 200 | 88.8 ± 7 | 71.9 ± 7 | 100 to 200 | 100 to 200 | 100 to 200 | > 200 | > 200 | 64.8 ± 5 | –
7 | O=c1c(O[C@@H]2O[C@H](CO)[C@@H](O)[C@H](O)[C@H]2O)c(-c2ccc(O)cc2)oc2cc(O)cc(O)c12 [Compound 20, kaempferol 3-O-glucoside] | > 200 | > 200 | > 200 | > 200 | > 200 | > 200 | 94.2 ± 6.9 | 46.9 ± 3.5 | 21.5 ± 2.2 | > 200 | > 200 | > 200 | > 200 | > 200 | > 200 | > 200 | > 200 | > 200 | –
8 | O=c1c(O)c(-c2ccc(O)c(O)c2)oc2cc(O)cc(O)c12 [Compound 24, quercetin] | 100 to 200 | 84.7 ± 6.5 | 79.2 ± 7.3 | > 200 | > 200 | 36.1 ± 2 | > 200 | > 200 | 74.4 ± 5 | > 200 | 58 ± 3.5 | 47.5 ± 4.3 | > 200 | > 200 | 68.1 ± 4.6 | > 200 | 92.6 ± 4.2 | 36.4 ± 0.23 | –
9 | COc1cc(O)c2c(=O)c(O)c(-c3ccc(O)c(O)c3)oc2c1 [Compound 25, 7-methoxyquercetin] | > 200 | 63.4 ± 4.8 | 43.7 ± 3.5 | 100 to 200 | 45.3 ± 2.3 | 35.7 ± 2.9 | 100 to 200 | 42.1 ± 3 | 25.1 ± 2.3 | > 200 | 55.4 ± 4.3 | 28.4 ± 2.5 | > 200 | 100 to 200 | 37.7 ± 2.5 | > 200 | 66.3 ± 5.6 | 38.4 ± 3.4 | –
10 | COc1cc(-c2oc3cc(O)cc(O)c3c(=O)c2O)ccc1O [Compound 26, 3′-methoxyquercetin] | > 200 | 100 to 200 | 78.1 ± 6.5 | – | – | – | – | – | – | – | – | – | > 200 | 100 to 200 | 49.3 ± 3.6 | – | – | – | IC50 at 24 h [2]: 100 to 200 µM; IC50 at 48 h [2]: 68.5 ± 5.4 µM; IC50 at 72 h [2]: 46.2 ± 3.3 µM; IC50 (A375 melanoma cells [3]; A-375, 24 h, read-out: IC50, cytotoxic activity, MTT test): 86.3 ± 5.9 µM; IC50 (A375 melanoma cells [3]; A-375, 48 h, read-out: IC50, cytotoxic activity, MTT test): 68.5 ± 3.9 µM; IC50 (A375 melanoma cells [3]; A-375, 72 h, read-out: IC50, cytotoxic activity, MTT test): 50.8 ± 4 µM; IC50 (C32 melanoma cells [4]; C32, 24 h, read-out: IC50, cytotoxic activity, NRU assay): > 200 µM; IC50 (C32 melanoma cells [4]; C32, 48 h, read-out: IC50, cytotoxic activity, NRU assay): 100 to 200 µM; IC50 (C32 melanoma cells [4]; C32, 72 h, read-out: IC50, cytotoxic activity, NRU assay): 65.1 ± 4 µM; IC50 at 24 h [6]: > 200 µM; IC50 at 48 h [6]: 78.7 ± 5.5 µM; IC50 at 72 h [6]: 69.2 ± 4.6 µM
